Consider 33 compounds from patent US20250186391A1, “ORAL COMPLEMENT FACTOR D INHIBITORS” (BioCryst Pharmaceuticals, Inc., priority 2019, published 2025).

Some results are limits rather than exact numbers.

In this test the target is Factor D (Homo sapiens (Human), UniProt P00746). The test can be described thus: Factor D esterolytic assay. The format is biochemical. Conditions: Z-Lys-SBzl substrate, 100 mM HEPES, 500 mM NaCl, pH 7.5, 10% DMSO; tested a minimum of three times; read-out: Measured Ki (IC50) Value for Compounds: IC50. In outline: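 Chromogenic thioesterase read-out: Z-Lys-SBzl (1.29 mM) hydrolysis by human Factor D, thiol detected with DTNB at 405 nm (690 nm background subtracted) for 600 s. Run in 100 mM HEPES, 500 mM NaCl, pH 7.5, 10% DMSO, substrate added immediately or after room-temperature preincubation. IC50 from percent inhibition versus enzyme alone, n≥3.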
Factor D, sequence (P00746 26-253): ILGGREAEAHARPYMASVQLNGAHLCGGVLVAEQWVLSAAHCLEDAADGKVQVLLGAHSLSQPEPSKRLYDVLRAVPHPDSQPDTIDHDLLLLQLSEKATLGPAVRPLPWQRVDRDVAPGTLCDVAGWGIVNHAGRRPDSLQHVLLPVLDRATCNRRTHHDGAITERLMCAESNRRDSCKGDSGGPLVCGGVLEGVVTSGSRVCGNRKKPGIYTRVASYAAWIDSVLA
Take `CCn1cc(-c2cc(-c3cccc(CN)c3)cc3c(COc4ccccc4CC(=O)O)coc23)cn1` [Compound 128c, 2-(2-((5-(3-(aminomethyl)phenyl)-7-(1-ethyl-1H-pyrazol-4-yl)benzofuran-3-yl)methoxy)phenyl)acetic acid]: the IC50 was below 1000 nM.

`COc1cc(-c2cccc(CN)c2)cc2c(COc3cc(C)ccc3CC(=O)O)coc12` [Compound 252c, 2-(2-((5-(3-(aminomethyl)phenyl)-7-methoxybenzofuran-3-yl)methoxy)-4-methylphenyl)acetic acid]: the IC50 is below 1000 nM.

`COc1ccc(CC(=O)O)c(OCc2coc3c(NCC4CCCC4)cc(-c4cccc(CN)c4)cc23)c1` [Compound 277c, 2-(2-((5-(3-(aminomethyl)phenyl)-7-((cyclopentylmethyl)amino)benzofuran-3-yl)methoxy)-4-methoxyphenyl)acetic acid]: the IC50 is below 1000 nM.

As to `Cc1ccc(CC(=O)O)c(OCc2coc3ccc(-c4cccc(CN)c4)cc23)c1` [Compound 47d, 2-(2-((5-(3-(aminomethyl)phenyl)benzofuran-3-yl)methoxy)-4-methylphenyl)acetic acid], the IC50 was below 1000 nM.

`NCc1cccc(-c2cc(COc3ccccc3CCC(=O)O)cc3cc(COc4ccccc4CC(=O)O)oc23)c1` [Compound 15e, 3-(2-((7-(3-(aminomethyl)phenyl)-2-((2-(carboxymethyl)phenoxy)methyl)benzofuran-5-yl)methoxy)phenyl)propanoic acid]: the IC50 was below 1000 nM.

`NCc1cccc(-c2ccc3occ(COc4cc(C(=O)O)ccc4CC(=O)O)c3c2)c1` [Compound 158d, 3-((5-(3-(aminomethyl)phenyl)benzofuran-3-yl)methoxy)-4-(carboxymethyl)benzoic acid]: the IC50 is below 1000 nM.

In the case of `COc1ccc(CC(=O)O)c(OCc2c(C)oc3c(C4CC4)cc(-c4cccc(CN)c4)cc23)c1` [Compound 273j, 2-(2-((5-(3-(aminomethyl)phenyl)-7-cyclopropyl-2-methylbenzofuran-3-yl)methoxy)-4-methoxyphenyl)acetic acid], the IC50 is below 1000 nM.

For `Cc1cc2c(o1)c(-c1cccc(CN)c1)cc1c(COc3ccccc3CC(=O)O)c(C)oc12` [Compound 272n, 2-(2-((5-(3-(aminomethyl)phenyl)-2,7-dimethylbenzo[1,2-b:3,4-b′]difuran-3-yl)methoxy)phenyl)acetic acid], the IC50 was below 1000 nM.

Take `Cc1ccc(CC(=O)O)c(OCc2c(C(C)(C)C)oc3ccc(-c4cccc(CN)c4)cc23)c1` [Compound 176c, 2-(2-((5-(3-(aminomethyl)phenyl)-2-(tert-butyl)benzofuran-3-yl)methoxy)-4-methylphenyl)acetic acid]: the IC50 was below 1000 nM.

As for `NCc1cccc(-c2cc3c(COc4ccccc4CC(=O)O)coc3c3ccoc23)c1` [Compound 123g, 2-(2-((5-(3-(aminomethyl)phenyl)benzo[1,2-b:3,4-b′]difuran-3-yl)methoxy)phenyl)acetic acid], the IC50 is below 1000 nM.

As to `NCc1cccc(-c2ccc3[nH]nc(C(=O)Nc4ccccc4CC(=O)O)c3c2)c1` [Compound 78e, 2-(2-(5-(3-(aminomethyl)phenyl)-1H-indazole-3-carboxamido)phenyl)acetic acid], the IC50 is below 1000 nM.

`Cn1cc(-c2cc(-c3cccc(CN)c3)cc3c(COc4ccccc4CC(=O)O)c(C(=O)O)oc23)cn1` [Compound 60d, 5-(3-(aminomethyl)phenyl)-3-((2-(carboxymethyl)phenoxy)methyl)-7-(1-methyl-1H-pyrazol-4-yl)benzofuran-2-carboxylic acid]: the IC50 is below 1000 nM.

As for `NCc1cccc(-c2cc(-c3ccc(F)cc3)c3occ(COc4ccccc4CC(=O)O)c3c2)c1` [Compound 221c, 2-(2-((5-(3-(aminomethyl)phenyl)-7-(4-fluorophenyl)benzofuran-3-yl)methoxy)phenyl)acetic acid], the IC50 is below 1000 nM.

`COc1ccc(CC(=O)O)c(OCc2c(C)oc3ccc(-c4ccnc(CN)c4)cc23)c1` [Compound 203d, 2-(2-((5-(2-(aminomethyl)pyridin-4-yl)-2-methylbenzofuran-3-yl)methoxy)-4-methoxyphenyl)acetic acid]: the IC50 was below 1000 nM.

`NCc1nccc(-c2cc(COc3ccccc3CC(=O)O)cc3cc(COc4ccccc4CC(=O)O)oc23)c1F` [Compound 28d, 2,2′-((((7-(2-(aminomethyl)-3-fluoropyridin-4-yl)benzofuran-2,5-diyl)bis(methylene))bis(oxy))bis(2,1-phenylene))diacetic acid]: the IC50 is below 1000 nM.

As to `COc1ccc(CC(=O)O)c(OCc2c(C)oc3ccc(-c4ccnc(CN)c4F)cc23)c1` [Compound 281d, 2-(2-((5-(2-(aminomethyl)-3-fluoropyridin-4-yl)-2-methylbenzofuran-3-yl)methoxy)-4-methoxyphenyl)acetic acid], the IC50 is below 1000 nM.

On to `Cc1ccc(CC(=O)O)c(OCc2c3cc(-c4cccc(CN)c4)ccc3nn2C)c1` [Compound 211c, 2-(2-((5-(3-(aminomethyl)phenyl)-2-methyl-2H-indazol-3-yl)methoxy)-4-methylphenyl)acetic acid], for which the IC50 is below 1000 nM.

Consider `Cc1oc2ccc(-c3cccc(CN)c3)cc2c1COc1ccccc1CC(=O)O` [Compound 124f, 2-(2-((5-(3-(aminomethyl)phenyl)-2-methylbenzofuran-3-yl)methoxy)phenyl)acetic acid], for which the IC50 is below 1000 nM.

For the compound `CC(C)(C)c1oc2ccc(-c3cccc(CN)c3)cc2c1COc1cc(F)ccc1CC(=O)O` [Compound 173c, 2-(2-((5-(3-(aminomethyl)phenyl)-2-(tert-butyl)benzofuran-3-yl)methoxy)-4-fluorophenyl)acetic acid], the IC50 was below 1000 nM.

As for `CC(C)n1nc(COc2ccccc2CC(=O)O)c2cc(-c3cc(CN)cc(C4CC4)c3)ccc21` [Compound 331e, 2-(2-((5-(3-(aminomethyl)-5-cyclopropylphenyl)-1-isopropyl-1H-indazol-3-yl)methoxy)phenyl)acetic acid], the IC50 lay in the range of 1000 to 10000 nM.

For `CC(C)CNc1cc(-c2cccc(CN)c2)cc2c(COc3ccccc3CC(=O)O)coc12` [Compound 151d, 2-(2-((5-(3-(aminomethyl)phenyl)-7-(isobutylamino)benzofuran-3-yl)methoxy)phenyl)acetic acid], the IC50 was below 1000 nM.

Consider `NCc1cccc(-c2cccc3cc(COc4ccccc4CCC(=O)O)ccc23)c1` [Compound 43c, 3-(2-((5-(3-(aminomethyl)phenyl)naphthalen-2-yl)methoxy)phenyl)propanoic acid], for which the IC50 was above 10000 nM.

On to `NCc1cccc(-c2cccc3c(COc4ccccc4CC(=O)O)coc23)c1` [Compound 36e, 2-(2-((7-(3-(aminomethyl)phenyl)benzofuran-3-yl)methoxy)phenyl)acetic acid], for which the IC50 is above 10000 nM.

Take `NCc1cccc(-c2cc(COc3ccc(F)cc3)c3occ(COc4ccccc4CC(=O)O)c3c2)c1` [Compound 143f, 2-(2-((5-(3-(aminomethyl)phenyl)-7-((4-fluorophenoxy)methyl)benzofuran-3-yl)methoxy)phenyl)acetic acid]: the IC50 is below 1000 nM.

Regarding `NCc1cccc(-c2ccc3occ(COc4c(N)cccc4CC(=O)O)c3c2)c1` [Compound 90h, 2-(3-amino-2-((5-(3-(aminomethyl)phenyl)benzofuran-3-yl)methoxy)phenyl)acetic acid], the IC50 was below 1000 nM.

Take `CC(O)c1cc(-c2cccc(CN)c2)c2oc(COc3ccccc3CC(=O)O)cc2c1` (stereo not drawn) [Compound 31, 2-(2-((7-(3-(aminomethyl)phenyl)-5-(1-hydroxyethyl)benzofuran-2-yl)methoxy)phenyl)acetic acid]: the IC50 was below 1000 nM.

In the case of `CC(C)(C)OC(=O)N1CCN(Cc2cc(-c3cccc(CN)c3)cc3c(COc4ccccc4CC(=O)O)coc23)CC1` [Compound 121f, 2-(2-((5-(3-(aminomethyl)phenyl)-7-((4-(tert-butoxycarbonyl)piperazin-1-yl)methyl)benzofuran-3-yl)methoxy)phenyl)acetic acid], the IC50 was below 1000 nM.

On to `NCc1cccc(-c2ccc3c(COc4ccccc4CC(=O)O)coc3c2)c1` [Compound 94d, 2-(2-((6-(3-(aminomethyl)phenyl)benzofuran-3-yl)methoxy)phenyl)acetic acid], for which the IC50 is above 10000 nM.

On to `NCc1cccc(-c2cc(CN3CCC(F)(F)C3)c3occ(COc4ccccc4CC(=O)O)c3c2)c1` [Compound 181f, 2-(2-((5-(3-(aminomethyl)phenyl)-7-((3,3-difluoropyrrolidin-1-yl)methyl)benzofuran-3-yl)methoxy)phenyl)acetic acid], for which the IC50 is below 1000 nM.

`NCc1cccc(-c2cc(CCC3CC3)c3occ(COc4ccccc4CC(=O)O)c3c2)c1` [Compound 170b, 2-(2-((5-(3-(aminomethyl)phenyl)-7-(2-cyclopropylethyl)benzofuran-3-yl)methoxy)phenyl)acetic acid]: the IC50 is below 1000 nM.

With `Cc1cccc(CC(=O)O)c1OCc1coc2ccc(-c3cccc(CN)c3)cc12` [Compound 107d, 2-(2-((5-(3-(aminomethyl)phenyl)benzofuran-3-yl)methoxy)-3-methylphenyl)acetic acid], the IC50 was below 1000 nM.

Regarding `COc1ccc(CC(=O)O)c(OCc2coc3ccc(-c4cccc(CN)c4F)cc23)c1` [Compound 6e, 2-(2-((5-(3-(aminomethyl)-2-fluorophenyl)benzofuran-3-yl)methoxy)-4-methoxyphenyl)acetic acid], the IC50 is below 1000 nM.

Take `NCc1cccc(-c2ccc3c(c2)c(COc2ccccc2CC(=O)O)nn3C2CCCCO2)c1` (stereo not drawn) [Compound 80d, 2-(2-((5-(3-(aminomethyl)phenyl)-1-(tetrahydro-2H-pyran-2-yl)-1H-indazol-3-yl)methoxy)phenyl)acetic acid]: the IC50 is below 1000 nM.

What is called IC50 is the concentration that inhibits the measured activity by half.
